{
  "source": "patent EP4241766A1",
  "about": "“USE OF OLFACTORY RECEPTOR OR13A1 LIGANDS IN THE TREATMENT OF LYMPHOMAS” (Fondazione Per L'Istituto Oncologico Di Ricerca (IOR), priority 2022, dated 2023)",
  "key": {"U2932 DLBCL cell line": {"system": "U2932 DLBCL cell line", "experiment": "Growth/viability of U2932 cells with doxycycline-inducible shRNA system targeting OR13A1", "type": "cell-based", "source_text": "• Figure 1. Expression of OR13A1 across lymphoma cell lines as measured by RNA-Seq. A) Heatmap is based on log2 CPM (counts per million). Scale ranges from low (white) to high expression (black). Each horizontal represents the value for one cell line. GCB DLBCL, diffuse large B-cell lymphoma of the germinal center B-cell-type; ABC DLBCL, diffuse large B-cell lymphoma of the activated B-cell-like; MCL, mantle cell lymphoma; MZL, marginal zone lymphoma; CLL, chronic lymphocytic leukemia; PMBCL, primary mediastinal large B-cell lymphoma; BL, Burkitt lymphoma. B) OR13A1 expression level by cell of origin in DLBCL cell lines, the expression was higher in cells derived from germinal center (GC) B-cell type (GCB) than activated B cell like (ABC) DLBCL (P value = 0.03). • Figure 2. OR13A1 silencing is associated with reduction in cell viability of DLBCL cells. Left panel, real-time PCR showing reduction of OR13A1 72h after siRNA treatment. Right panel, Reduction of cell viability, measured with MTT, in DLBCL cells after gene silencing. • Figure 3. Homology model of OR13A1 with two ligands. A) cyclohexanone docked onto the orthosteric binding site. B) tyramine docked onto the orthosteric binding site. Residues identified in the model to interact with the tyramine, potentially relevant for the receptor activation, are shown in sticks, D221 and T297. • Figure 4. […] Experiments were done using U2932 cells with the doxycycline-inducible shRNA system, exposed or not to cyclohexanone (25µM). The red arrow indicates the addition of cyclohexanone. CH, cyclohexanone; sh1, doxycycline-inducible shRNA targeting OR13A1; shCNT, scramble doxycycline-inducible shRNA.\nCellular experiments followed with cyclohexanone and, among the predicted ligands, tyramine using the U2932 DLBCL cell line with the doxycycline-inducible shRNA system."}, "Olfr1484": {"system": "Olfr1484", "settings": "experimentally demonstrated, reference [52]; cited from earlier work"}, "Olfr211": {"molecular_target": "T1, Olfr211 (Mus musculus, UniProt Q8VGH2)", "T1 sequence (Q8VGH2 1-309)": "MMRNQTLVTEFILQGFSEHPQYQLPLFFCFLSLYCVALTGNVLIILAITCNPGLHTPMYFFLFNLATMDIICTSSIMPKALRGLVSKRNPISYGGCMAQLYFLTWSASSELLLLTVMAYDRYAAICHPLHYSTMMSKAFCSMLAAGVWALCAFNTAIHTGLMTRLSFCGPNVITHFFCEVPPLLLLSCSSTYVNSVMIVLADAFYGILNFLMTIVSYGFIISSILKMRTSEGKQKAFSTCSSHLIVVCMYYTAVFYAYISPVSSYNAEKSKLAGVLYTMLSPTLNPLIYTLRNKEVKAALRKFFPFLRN", "settings": "experimentally demonstrated, reference [52]; cited from earlier work"}},
  "data": [
    {"smiles": "NCCc1ccc(O)cc1", "note": "[tyramine]", "values": [
      {"measurement": "lymphoma cell line growth", "setting": "U2932 DLBCL cell line; U2932 DLBCL cell line, doxycycline-inducible shRNA system", "value": "increased lymphoma cell line growth"}
    ]},
    {"smiles": "O=C1CCCCC1", "note": "[cyclohexanone]", "values": [
      {"measurement": "ligand of Olfr1484", "setting": "Olfr1484", "value": "ligand"},
      {"measurement": "lymphoma cell viability", "setting": "U2932 DLBCL cell line; U2932, in the presence of the GPCR (OR13A1), Figure 4", "value": "decreased the lymphoma cell viability in the presence"},
      {"measurement": "effect on growth of DLBCL cells", "setting": "U2932 DLBCL cell line; U2932 cells, cyclohexanone 25µM, absence of OR13A1 (sh1), Figure 4", "value": "The absence of OR13A1 abrogates the effect"},
      {"measurement": "growth of DLBCL cells", "setting": "U2932 DLBCL cell line; U2932 cells, cyclohexanone 25µM, Figure 4", "value": "reduces the growth of DLBCL cells"},
      {"measurement": "ligand of Olfr211", "setting": "Olfr211", "value": "ligand"}
    ]}
  ]
}
